# Experimental data published in patent US20110039762A1, “TARGETED ANTIMICROBIAL MOIETIES” (C3 JIAN, INC., priority 2009, published 2011).
# Entries after “also recorded” stand apart in the source; their conditions may differ. Bridge positions count the residues as written; N and C are the ends. Square brackets hold non-standard residues; d marks the D form. Ends that are not written are not given here. Peptide text beside a SMILES is read from it. I, II: the chains in the order shown. Aoc = NCCCCCCCC(=O)O
# How the values were obtained:
# S. mutans [1] = test: Post-antibiotic effect assay (growth retardation after 10 min exposure); assay type: cell-based, Streptococcus mutans; conditions: S. mutans monoculture, peptide 10 min, then fresh medium
# Protocol: The activity and selectivity of MH-STAMPs after a 10 min incubation was determined by growth retardation experiments against targeted and untargeted bacteria in monocultures, as described previously (Id.). Cells from overnight cultures were diluted to ˜5×10^6 cfu/mL in MH (or TH with 1% sucrose for S. mutans), normalized by OD600 0.05-0.1 and seeded to 96-well plates. Cultures were then grown under the appropriate conditions for 2 h (3 h for S. mutans) prior to the addition of peptides for 10 min. Plates were then centrifuged at 3000×g for 5 min, the supernatants discarded, fresh medium returned (MH or TH without sucrose for S. mutans), and incubation resumed. Bacterial growth after treatment was then monitored over time by OD600.
# [2] = system: Mixed planktonic populations of P. aeruginosa, E. coli, S. epidermidis, and S. mutans; test: Microbial population shift assay; assay type: cell-based; conditions: 10 μM peptide, 24 h
# Protocol: Peptide (10 μM) or mock-treatment (1× PBS) was then added and samples were incubated at 37° C. for 24 h under anaerobic conditions (80% N2, 15% CO2, 5% H2). […] Plates were then incubated 37° C. under aerobic conditions (TH plates were incubated anaerobically) and colonies counted after 24 h to determine survivors. […] Gram stains and direct microscopic observation (from select isolated colonies) were undertaken to confirm species identity (data not shown). The detection limit of the assay was 200 cfu/mL.
# S. pneumoniae = test: Kill or inhibit growth/proliferation; morphology, biofilm and growth disruption (Tables 5, 6); assay type: cell-based, Streptococcus pneumoniae; parameters: key: A: Peptide aggregates; B: Less hyphal formation; Clumps; Diffuse clumps and small polyps; F: Diffuse growth; H: Thin; I: Growth inhibition; Microcolony formation; Rippled; Small polyps; Thick; W: Halo formation on top, microlonies on bottom
# [3] = system: microorganisms (e.g., bacteria, yeasts, fungi); test: Targeting peptide binding to target microorganisms (Table 3); conditions: microorganism(s) the targeting peptide binds, preferably 1x PBS
# C. difficile = test: MIC (broth microdilution); assay type: cell-based, Clostridium difficile
# Protocol: (§1) Typically, the in vitro antimicrobial activity of antimicrobial agents is tested using standard NCCLS bacterial inhibition assays, or MIC tests (see, National Committee on Clinical Laboratory Standards “Performance Standards for Antimicrobial Susceptibility Testing,” NCCLS Document M100-S5 Vol. 14, No. 16, December 1994; “Methods for dilution antimicrobial susceptibility test for bacteria that grow aerobically-Third Edition,” Approved Standard M7-A3, National Committee for Clinical Standards, Villanova, Pa.).
# (§2) Briefly, ˜1×10^5 cfu/mL bacteria were diluted in TH (S. mutans), or Mueller-Hinton (MH) broth (all other organisms) and distributed to 96-well plates. Serially-diluted (2-fold) peptides were then added and the plates incubated at 37° C. for 18-24 h. […] All experiments were conducted 10 times.
# microorganisms = test: Peptides having multiple activities (targeting/binding, antimicrobial, growth or phenotype altering)
# Text: In certain embodiments, peptides described herein can have multiple activities. Thus for example, a peptide can have both binding/targeting activity and antimicrobial activity. Such peptides can be used, e.g., in a chimeric construct, for any or all of these properties. Thus, for example, a peptide designated “B” in Table 8 can be used as a targeting peptide. If it is also designated G or M it can also be used for antimicrobial activity.
# A. baumannii = test: MIC (broth microdilution); assay type: cell-based, Acinetobacter baumannii
# Protocol: as §1, §2
# C. albicans [4] = test: MIC (broth microdilution); assay type: cell-based, Candida albicans
# Protocol: as §1, §2
# M. luteus = test: Kill or inhibit growth/proliferation; morphology, biofilm and growth disruption (Tables 5, 6); assay type: cell-based, Micrococcus luteus; parameters: key: A: Peptide aggregates; B: Less hyphal formation; Clumps; Diffuse clumps and small polyps; F: Diffuse growth; H: Thin; I: Growth inhibition; Microcolony formation; Rippled; Small polyps; Thick; W: Halo formation on top, microlonies on bottom
# C. albicans [5] = test: as above; assay type: cell-based, Candida albicans; parameters: key: A: Peptide aggregates; B: Less hyphal formation; Clumps; Diffuse clumps and small polyps; F: Diffuse growth; H: Thin; I: Growth inhibition; Microcolony formation; Rippled; Small polyps; Thick; W: Halo formation on top, microlonies on bottom
# S. epidermidis [6] = assay type: cell-based, Staphylococcus epidermidis; conditions: S. epidermidis
# Outline: (§3)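 Ten repeat experiments used NCCLS dilution susceptibility testing: MH broth, ˜1×10^5 cfu/mL starting density, 2-fold peptide titration, 18-24 h incubation at 37° C.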
# S. epidermidis [7] = test: Kill or inhibit growth/proliferation; morphology, biofilm and growth disruption (Tables 5, 6); assay type: cell-based, Staphylococcus epidermidis; parameters: key: A: Peptide aggregates; B: Less hyphal formation; Clumps; Diffuse clumps and small polyps; F: Diffuse growth; H: Thin; I: Growth inhibition; Microcolony formation; Rippled; Small polyps; Thick; W: Halo formation on top, microlonies on bottom
# T. rubrum = test: MIC (broth microdilution); assay type: cell-based, Trichophyton rubrum
# Protocol: as §1, §2
# B. subtilis [8] = test: Kill or inhibit growth/proliferation; morphology, biofilm and growth disruption (Tables 5, 6); assay type: cell-based, Bacillus subtilis; parameters: key: A: Peptide aggregates; B: Less hyphal formation; Clumps; Diffuse clumps and small polyps; F: Diffuse growth; H: Thin; I: Growth inhibition; Microcolony formation; Rippled; Small polyps; Thick; W: Halo formation on top, microlonies on bottom
# B. subtilis [9] = test: MIC (broth microdilution); assay type: cell-based, Bacillus subtilis
# Outline: as §3
# [10] = system: BHK-21 (ATCC CRL-10) fibroblasts; test: Cytotoxicity, Promega CellTiterGlo assay; assay type: cell-based, hamster; conditions: BHK, at either 5 min or 24 h, with or without light
# Protocol: Streptococcus oralis ATCC 10557, Streptococcus gordonii (Challis), Streptococcus sanguinis (NY101), Streptococcus mitis ATCC 903, Streptococcus salivarius ATCC 13419 and S. mutans wild-type UA140 and JM11 (spectinomycin-resistant) strains were grown in Todd-Hewitt (TH) broth 37° C. in an anaerobic atmosphere of 80% N2, 10% CO2, and 10% H2. BHK-21 (ATCC CRL-10) fibroblasts were propagated in DMEM with 10% FBS, 1 mM sodium pyruvate, 100 units/mL penicillin G, and 100 μg/mL streptomycin at 37° C. with 5% CO2. Cells were detached with 0.25% trypsin and subcultured as recommended by the supplier.
# The effect of RB and C16-RB on […] fibroblasts was ascertained by utilizing the Promega CellTiterGlo assay, as described by the manufacturer. Briefly, fibroblasts were grown to confluence, detached, and seeded to ˜5,000 cells per well in a 96-well opaque walled, clear bottom 96-well plate (Nunc International). For long-term dark toxicity, cells were allowed to attach to for 18 h before the culture medium was replaced with medium plus serially-diluted RB or C16-RB (200 μM to 390 nM) or medium alone. After 18-24 h, equal volume Cell Titer Glo reagent was added to each well and mixed. Luciferace activity was then quantified to measure cell viability (Varian Fluorometer in Biolumenescence mode). To measure cytotoxicity after RB or C16-RB light exposure, cells were seeded at ˜10,000 cells per well and allowed to attach for 4 h. Cell growth medium was then replaced with RB or C16-RB containing medium, prior to exposure (a single well at a time) with blue light (400 mW/cm^2) suspended ˜3 cm from the well bottom. After exposure, cultures were disrupted with Cell Titer Glo and luciferase activity quantitated as above.
# S. mutans [11] = test: Anti-S. mutans STAMP activity in vitro, also in formulations; assay type: cell-based, Streptococcus mutans
# [12] = binding in aqueous buffers depending on peptide solubility
compound,measurement,setting,value
CC[C@H](C)[C@H](NC(=O)[C@H](Cc1ccccc1)NC(=O)CCCCCCCNC(=O)[C@H](CCCCNC(=O)CNC(=O)CNC(=O)CNC(=O)[C@H](C)NC(=O)[C@H](CCC(=O)O)NC(=O)[C@H](CC(N)=O)NC(=O)[C@H](C)NC(=O)[C@H](C)NC(=O)[C@@H](N)CC(=O)O)NC(=O)CNC(=O)CNC(=O)CNC(=O)[C@H](CCCNC(=N)N)NC(=O)[C@H](CC(N)=O)NC(=O)[C@H](CC(C)C)NC(=O)[C@H](Cc1ccccc1)NC(=O)[C@H](CCCNC(=N)N)NC(=O)[C@H](Cc1ccccc1)NC(=O)[C@H](Cc1ccccc1)NC(=O)[C@@H](NC(C)=O)[C@@H](C)O)C(=O)N[C@@H](CCCNC(=N)N)C(=O)N[C@@H](CCCCN)C(=O)N[C@@H](Cc1ccccc1)C(=O)N[C@@H](CC(C)C)C(=O)N[C@@H](CCCCN)C(=O)N[C@@H](CCCCN)C(=O)N[C@@H](Cc1c[nH]c2ccccc12)C(=O)N[C@@H](CC(C)C)C(=O)N[C@@H](CC(C)C)C(N)=O [M8(BL)-20] (I: Ac-TFFRFLNRGGGK[Aoc]FIRKFLKKWLL-NH2 / II: H-DAANEAGGG; amide I:12-II:C),bacterial growth (OD600) after treatment,S. mutans [1],effectively retarded
same,recoverable (surviving) cfu/mL,[2]; E. coli in mixed culture,not affected or affected to a lesser extent
same,recoverable (surviving) cfu/mL,[2]; P. aeruginosa in mixed culture,not affected or affected to a lesser extent
same,recoverable (surviving) cfu/mL,[2]; S. epidermidis in mixed culture,not affected or affected to a lesser extent
same,recoverable (surviving) cfu/mL,[2]; S. mutans in mixed culture,greatly reduced compared to input cfu/mL
FELVDWLETNLGKILKSKSA-NH2 [PF-522],"Organism, effect",S. pneumoniae,S. pneumoniae (H)
same,Target(s),[3]; peptide binding conducted in aqueous buffers varied by peptide solubility,S. epidermidis; also recorded: E. coli; also recorded: P. aeruginosa; also recorded: S. pneumoniae; also recorded: E. faecalis
same,MIC,C. difficile,"C. difficile, 25 μM"
same,Activities,microorganisms,G B M
KNKKQTDILEKVKEILDKKKKTKSVGQKLY [PF-538],"Organism, effect",S. pneumoniae,S. pneumoniae (H)
same,MIC,C. difficile,"C. difficile, 25 μM"
same,Activities,microorganisms,G M
same,MIC,A. baumannii,"A. baumannii, 25 μM"
LSLATFAKIFMTRSNWSLKRFNRL [PF-278],MIC,C. albicans [4],"C. albicans, 50 μM"
same,"Organism, effect",M. luteus,M. luteus (R)
same,Target(s),[3]; [12],M. luteus; also recorded: A. baumannii
same,"Organism, effect",C. albicans [5],C. albicans (B)
same,MIC,S. epidermidis [6],"S. epidermidis, 50 μM"
same,Activities,microorganisms,G B M
same,"Organism, effect",S. epidermidis [7],S. epidermidis (I)
same,MIC,T. rubrum,"T. rubrum, 50 μM"
MKRRRCNWCGKLFYLEEKSKEAYCCKECRKKAKKVKK [PF-307],MIC,C. albicans [4],"C. albicans, 50 μM"
same,Target(s),[3]; [12],S. epidermidis; also recorded: B. subtilis; also recorded: B. fragilis; also recorded: C. difficile
same,"Organism, effect",B. subtilis [8],B. subtilis (H)
same,"Organism, effect",C. albicans [5],C. albicans (B)
same,Activities,microorganisms,G B M
same,MIC,B. subtilis [9],"B. subtilis, 50 μM"
same,"Organism, effect",S. epidermidis [7],S. epidermidis (T)
same,MIC,T. rubrum,"T. rubrum, 50 μM"
Melittin B,IC50,[10],< 1.56 µM
TFFRLFNRSFTQALGKGGGKNLRIIRKGIHIIKKY* (not fully specified (C-terminus); printed as TFFRLFNRSFTQALGKGGGKNLRIIRKGIHIIKKY*) [Peptide C16G2],PBS strength at activity optimum,S. mutans [11]; PBS formulations 0.5× to about 2.5× PBS,about 1 × PBS
same,anti-S. mutans activity,S. mutans [11]; phosphate buffered saline (PBS) formulation,active
same,anti-S. mutans activity,S. mutans [11]; water-based salt-free buffers and nanoemulsions,substantially inactive
